The values below come from US20250019665A1, “SCALABLE BIOMANUFACTURING OF TUMOR ORGANOIDS” (The Board of Trustees of The University of Alabama, priority 2023, published 2025).

One data set concerns GBO (U251). The experiment in a line: Live and dead cell staining of GBO. The settings on record: GBO in bioreactor, live and dead cells stained. It counts as cell-based. The source says: Live and Dead Cell Analysis: Cells were stained with Live and Dead Cell Kit according to manufacturer's protocol (Abcam, ab115347). Sample images were acquired and analyzed using Nikon C2 Laser Scanning Confocal Microscope.

Another data set relates to U251. The settings on record: U251 inoculated as single cells, BR2 bioreactor, 60 and 120 rpm, 5 days of culture, with vs without ROCKi.
Data set [1] deals with SOX2 and CD44 expression in GBO. The experiment in a line: IHC of GSC markers SOX2 and CD44 in GBO, fluorescence intensity by CTCF. The settings on record: GBO with vs without ROCKi. The data set is classed as cell-based. The protocol: To further examine whether ROCKi maintained GSC stemness, the expression of GSC markers, SOX2 and CD44, were analyzed (FIG. 6B).
where A is the two-dimensional projected area, and p is perimeter. Images were acquired with 12-bit depth, and the raw files were analyzed using NIS-Elements Viewer (Nikon) and ImageJ (NIH). Fluorescence intensity was calculated by the corrected total cell fluorescence (CTCF).
Immunohistochemistry (IHC): GBOs were fixed using 4% paraformaldehyde (Alfa Acsar, J61899AK) overnight and dehydrated using ethanol followed by xylene. Dehydrated GBOs were embedded in paraffin. Paraffin-embedded GBOs were sectioned to 5 to 10 μm thickness. Deparaffinization was done by xylene followed by ethanol. Sectioned GBOs were rehydrated with water. 10 mM sodium citrate buffer with […] was formulated for antigen retrieval and adjusted to pH 6.0. Antigen retrieval was performed at 95° C. for ten minutes. Sectioned GBOs were stained with primary antibodies: CD133, SOX2, CD44, NOTCH1, DLL1, HIF-1α, CD31, CD34, CD144, CD146, α-SMA, NG2, GFAP, Map2, S100B, VEGFR, ZO1, and POU3f2, followed by secondary staining. Cell nuclei were counter stained by Hoechst 33342 (Invitrogen, H1399). Stained GBOs were mounted using ProLong Glass Antifade Mountant with NucBlue (Invitrogen, P36981) and imaged by Nikon C2 Laser Scanning Confocal Microscope.

As to `C[C@@H](N)[C@H]1CC[C@H](C(=O)Nc2ccncc2)CC1` [ROCKi, Y-27632], the apoptosis entry in the data set with GBO (U251) is listed as “did not induce apoptosis”. The cell proliferation entry with U251 is recorded as “inhibited cell proliferation”. The “expression levels of GSC markers SOX2 and CD44” value in data set [1] is given as “not significantly different”.
